Experimental data published in ChEMBL document CHEMBL2203236, “New monoterpene glycosides from Paeonia suffruticosa Andrews and their inhibition on NO production in LPS-induced RAW 264.7 cells” (Bioorg Med Chem Lett, 2012).

Columns and labels:
[1] = test system: RAW264.7; test: Inhibition of LPS-induced NO production in mouse RAW264.7 cells after 24 hrs by Griess reaction; format: functional, cell-based; conditions: RAW264.7, 24 h
[2] = test system: RAW264.7; test: Cytotoxicity against mouse RAW264.7 cells after 24 hrs; format: cell-based; conditions: raw264.7, 24 h

| SMILES | IC50 [1] [µM] | Activity [2] |
| --- | --- | --- |
| CO[C@]12C[C@]3(C)O[C@H](O1)[C@]1(COC(=O)c4ccccc4)[C@@H]2C[C@]13O[C@@H]1O[C@H](COC(=O)c2ccccc2)[C@@H](O)[C@H](O)[C@H]1O | 41.9 | Non-toxic |
| CO[C@@H]1O[C@@]2(C)CC(=O)[C@@H]3C[C@@]2(O[C@@H]2O[C@H](CO)[C@@H](O)[C@H](O)[C@H]2O)[C@]13COC(=O)c1ccc(O)cc1 | – | Non-toxic |
| C[C@@]12C[C@@]3(O)O[C@@H](O1)[C@]1(CO)[C@H]3C[C@@]12O[C@@H]1O[C@H](CO)[C@@H](O)[C@H](O)[C@H]1O | 74.2 | Non-toxic |
| C[C@@]12C[C@@]3(O)O[C@@H](O1)[C@]1(COC(=O)c4ccccc4)[C@@H]3C[C@]12O[C@@H]1O[C@H](COC(=O)c2ccccc2)[C@@H](O)[C@H](O)[C@H]1O [BENZOYLPAEONIFLORIN] | > 100 | Non-toxic |
| C[C@@]12C[C@@]3(O)O[C@@H](O1)[C@]1(COC(=O)c4ccccc4)[C@@H]3C[C@]12O[C@@H]1O[C@H](COC(=O)c2cc(O)c(O)c(O)c2)[C@@H](O)[C@H](O)[C@H]1O [GALLOYLPAEONIFLORIN] | 36.1 | Non-toxic |
| CC1=CC(=O)[C@@H]2C[C@@]1(O[C@@H]1O[C@H](CO)[C@@H](O)[C@H](O)[C@H]1O)[C@@]2(C)CO [MOUDANPIOSIDE F] | 12.4 | Non-toxic |
| COc1cc(C(=O)OC[C@H]2O[C@@H](O[C@@]34C[C@H]5[C@@]3(CO)[C@H]3O[C@]5(O)C[C@]4(C)O3)[C@H](O)[C@@H](O)[C@@H]2O)ccc1O [MUDANPIOSIDE E] | > 100 | Non-toxic |
| COc1cc(C(=O)OC[C@H]2O[C@@H](O[C@]34C[C@@H]5[C@@]3(COC(=O)c3ccccc3)[C@H]3O[C@]5(O)C[C@]4(C)O3)[C@H](O)[C@@H](O)[C@@H]2O)ccc1O [MUDANPIOSIDE J] | > 100 | Non-toxic |
| C[C@@]12C[C@@]3(O)O[C@@H](O1)[C@]1(COC(=O)c4ccc(O)cc4)[C@H]3C[C@@]12O[C@@H]1O[C@H](CO)[C@@H](O)[C@H](O)[C@H]1O [OXYPAEONIFLORIN] | – | Non-toxic |
| CO[C@H]1O[C@@]2(C)CC(=O)[C@H]3C[C@]2(O[C@@H]2O[C@H](COC(=O)c4ccccc4)[C@@H](O)[C@H](O)[C@H]2O)[C@]13COC(=O)c1ccccc1 [PAEONIDANIN A] | > 100 | Non-toxic |
| C[C@@]12CC(=O)[C@H]3C[C@]1(O)O[C@H](O2)[C@@H]3COC(=O)c1ccccc1 [PAEONIFLORIGENONE] | 6.87 | Non-toxic |
| C[C@@]12C[C@@]3(O)O[C@@H](O1)[C@]1(COC(=O)c4ccccc4)[C@H]3C[C@@]12O[C@@H]1O[C@H](COC(=O)c2ccccc2)[C@@H](O[C@@H]2O[C@H](CO)[C@@H](O)[C@H](O)[C@H]2O)[C@H](O)[C@H]1O [PAEONIFLORIN B] | 31.2 | Non-toxic |

More lines, main results first:

| IC50 [1] [µM] | SMILES | Activity [2] |
| --- | --- | --- |
| > 100 | CCCCO[C@]12C[C@]3(C)OC(O1)[C@]1(COC(=O)c4ccccc4)[C@@H]2C[C@@]31O[C@@H]1O[C@H](CO)[C@@H](O)[C@H](O)[C@H]1O | Non-toxic |
| > 100 | CO[C@]12C[C@]3(C)O[C@H](O1)[C@]1(COC(=O)c4ccccc4)[C@@H]2C[C@]13O[C@@H]1O[C@H](CO)[C@@H](O)[C@H](O)[C@H]1O | Non-toxic |
| > 100 | CO[C@]12C[C@]3(C)O[C@H](O1)[C@]1(COC(=O)c4ccc(O)cc4)[C@H]2C[C@@]13O[C@@H]1O[C@H](CO)[C@@H](O)[C@H](O)[C@H]1O | Non-toxic |
| > 100 | CO[C@]12C[C@]3(C)O[C@H](O1)[C@]1(COC(=O)c4ccc(O)cc4)[C@H]2C[C@@]13O[C@@H]1O[C@H](COC(=O)c2cc(O)c(O)c(O)c2)[C@@H](O)[C@H](O)[C@H]1O | Non-toxic |
| > 100 | CCCCO[C@H]1O[C@@]2(C)CC(=O)[C@@H]3C[C@@]2(O[C@@H]2O[C@H](CO)[C@@H](O)[C@H](O)[C@H]2O)[C@]13COC(=O)c1ccc(O)cc1 | Non-toxic |
| > 100 | CCCCO[C@H]1O[C@@]2(C)CC(=O)[C@@H]3C[C@@]2(O[C@@H]2O[C@H](CO)[C@@H](O)[C@H](O)[C@H]2O)[C@]13COC(=O)c1ccccc1 | Non-toxic |
| > 100 | CCCCO[C@]12C[C@]3(C)O[C@H](O1)[C@]1(COC(=O)c4ccc(O)cc4)[C@H]2C[C@@]13O[C@@H]1O[C@H](CO)[C@@H](O)[C@H](O)[C@H]1O | Non-toxic |
| > 100 | C[C@@]12C[C@@]3(O)O[C@@H](O1)[C@]1(COC(=O)c4ccc(O)cc4)[C@H]3C[C@@]12O[C@@H]1O[C@H](COC(=O)c2cc(O)c(O)c(O)c2)[C@@H](O)[C@H](O)[C@H]1O [GALLOYLOXYPAEONIFLORIN] | Non-toxic |
| > 100 | COc1ccc(C(=O)OC[C@H]2O[C@@H](O[C@]34C[C@@H]5[C@@]3(COC(=O)c3ccc(O)cc3)[C@H]3O[C@]5(O)C[C@]4(C)O3)[C@H](O)[C@@H](O)[C@@H]2O)cc1 [MOUDANPIOSIDE B] | Non-toxic |
| > 100 | COc1ccc(C(=O)OC[C@]23[C@H]4O[C@]5(O)C[C@](C)(O4)[C@@]2(O[C@@H]2O[C@H](CO)[C@@H](O)[C@H](O)[C@H]2O)C[C@H]35)cc1 [MUDANPIOSIDE D] | Non-toxic |
| > 100 | C[C@@]12C[C@@]3(O)O[C@@H](O1)[C@]1(COC(=O)c4ccc(O)cc4)[C@H]3C[C@@]12O[C@@H]1O[C@H](COC(=O)c2ccc(O)cc2)[C@@H](O)[C@H](O)[C@H]1O [MUDANPIOSIDE H] | Non-toxic |
| 90.9 | CO[C@H]1O[C@@]2(C)CC(=O)[C@@H]3C[C@@]2(O[C@@H]2O[C@H](CO)[C@@H](O)[C@H](O)[C@H]2O)[C@]13COC(=O)c1ccc(O)cc1 [OXYPAEONIDANIN] | Non-toxic |
| > 100 | C[C@@]12C[C@@]3(OS(=O)O)O[C@@H](O1)[C@]1(COC(=O)c4ccc(O)cc4)[C@H]3C[C@@]12O[C@@H]1O[C@H](CO)[C@@H](O)[C@H](O)[C@H]1O [OXYPAEONIFLORIN SULFONATE] | Non-toxic |
| > 100 | C[C@@]12C[C@@]3(O)O[C@@H](O1)[C@]1(COC(=O)c4ccc(O)cc4)[C@@H]3C[C@]12O[C@@H]1O[C@H](CO)[C@@H](O)[C@H](O)[C@H]1O [OXYPAEONIFLORIN] | – |
| > 100 | C[C@@]12C[C@@]3(O)O[C@@H](O1)[C@]1(COC(=O)c4ccccc4)[C@H]3C[C@@]12O[C@@H]1O[C@H](CO)[C@@H](O)[C@H](O)[C@H]1O [PAEONIFLORIN] | Non-toxic |
